Assay results from US9808439B2 (Macau University of Science and Technology, priority 2015, dated 2017).
Read-outs that look alike come from different tables or passages of the source.

Columns and labels:
A549/T cells = assay: SRB cell cytotoxicity assay in A549/T; format: cell-based, human; settings: for IC50: Homo sapiens
A2780/T cells [1] = assay: SRB cell cytotoxicity assay in A2780/T; settings: for fold reversal / IC50: A2780/T; for IC50: read-out: IC50 ± SD
Description: Sulphorhodamine B (SRB) assays were carried out as previously described to assess cell density, based on sensitive measure of total cellular protein, which performed similarly compared with other proliferation assays such as MTT assay. Briefly, cells were seeded into flat bottomed 96-well plates at an initial density of 7.5×10^3 per well before treatment. […] After removing the medium, cells were fixed in 10% trichloroacetic acid for 1 h at 4° C. and then washed with water five times. 0.4% SRB dissolved in 1% v/v acetic acid was added and incubated 30 mm for staining. The cells were quickly washed with 1% acetic acid and left to dry overnight. The protein bound SRB was solubilized by adding 200 μl 10 mM Tris buffer per well and measured at wavelengths 490 nm using a plate reader (Spectra MAX 250; Molecular Devices, Sunnyvale, Calif.).

A2780/T cells [2] = assay: Apoptosis by Annexin-V/PI double staining; format: cell-based, human; settings: 7.53 μM tangeretin or 0.94 μM PTX alone
Description: After treatment, 1×10^6 cells were collected, washed and suspended in 100 μl of binding buffer (10 mM N-2-hydroxyethylpiperazine-N,-2-ethanesulfonic acid/NaOH, 140 mM NaCl, 2.5 mM CaCl2, pH 7.4). Apoptotic cells were identified by double supravital staining with 5 μl recombinant FITC (fluorescein isothiocyanate)-conjugated Annexin-V and 5 μl PI (50 μg/ml). The cells were stained for […] at room temperature in the dark, and analyzed by fluorescence-activated cell sorting cater-plus flow cytometry. Data acquisition and analysis were performed in BD FACS Aria with FlowJo software.

A2780 cells = assay: Cell cycle analysis by flow cytometry in A2780; format: cell-based, human; settings: A2780, PTX 0.01 μM
Description: (§1) A2780/T cells were harvested after 24-hours, 48-hour, or 72-hour treatment and washed twice with ice-cold PBS. The cells were fixed and permeabilized with 70% ice-cold ethanol overnight at 4° C. or −20° C. for 2 h. After one additional wash in PBS, cells were stained with a staining solution containing PI ([…]) and RNase A (250 μg/ml) for […] at room temperature. They were then pelleted, washed and suspended in PBS to a final concentration of 1×10^6/ml and analyzed by flow cytometry (BD FACS Aria, BD Biosciences, San Jose, Calif.).

p53 = assay: Western blot of p53 expression; format: cell-based, human; settings: PTX in combination with tangeretin
Description: The total cellular samples were harvested and rinsed twice with ice-cold PBS buffer. Cell extracts were lysed in RIPA buffer (50 mM Tris (pH 7.4), 150 mM NaCl, 1% Triton X-100, 1% sodium deoxycholate, 0.1% SDS, sodium orthovanadate, sodium fluoride and EDTA) containing protease inhibitor cocktails (Roche Life Science, USA). Protein concentration was determined using the BCA protein assay kit. Equal amounts of cell lysates were resolved by SDS-PAGE and subsequently electrophoretically transferred onto PVDF membranes (Millipore, Darmstadt, Germany). After blocking in tris-buffered saline containing 0.1% of Tween20 (TBST) with 5% (w/v) skim milk (Nestle Carnation, New Zealand) for 2 h at room temperature, the membranes were incubated with primary and secondary antibodies and subsequently visualized with an enhanced chemiluminescence detection kit (Thermo Scientific™ SuperSignal™ West Pico Chemiluminescent Substrate, USA). β-Actin was used as the loading control for the experimental data analysis.

A2780/T cells [3] = assay: Combination index, Chou-Talalay method (CalcuSyn); format: cell-based, human
Description: Combination index (CI) was calculated to quantitatively depict synergistic ([…], additive (CI=1), or antagonistic (CI>1) effect. With the use of CalcuSyn software v. 2.1 (Bio-soft), synergy is further refined as synergism (combination index=0.3-0.7), strong synergism (combination index=0.1-0.3), and very strong synergism (combination index<0.1).

A2780/T cells [4] = assay: Cell cycle analysis by flow cytometry in A2780/T; format: cell-based, human; settings: 48 h
Description: as §1

A2780/T cells [5] = assay: Intracellular accumulation of DOX and Flutax-2 in A2780/T; format: cell-based, human; settings: 8 h, 7.53 μM tangeretin or 20 μM QND
Description: cells (5×10^6) were cultured on the cover glass (ISO LAB 20×20 mm). […] After treatment, cells were fixed in 4 wt % formaldehyde (Sigma-Aldrich). Nuclear DNA was stained with 1 μg/mL blue-fluorescent DAPI (1 mg/mL in H2O stock solution; Invitrogen D1306). One drop of fluorescent preservation solution (fluorsave reagent, CALBIOCHEM) was added before observation. Imaging was carried out for comparing the intracellular accumulation of DOX and flutax-2 with a Fluorescence Microscopy (Leica DM2500, Leica, Germany). […] Cells were detached, re-suspended in 500 μl of PBS after washed twice with cold PBS, and analyzed by flow cytometry (BD FACS Aria, BD Biosciences, San Jose, Calif.). Excitation and emission wavelengths (nm) used for DOX and flutax-2 were as follows: 480 to 585; and 496 to 524.

[6] = A549, 48 h, A549/T, 48 h, drug alone, read-out: IC50 ± SD
[7] = A549, A549/T, +7.53 μM TG, read-out: IC50 ± SD
[8] = A549, A549/T, +0.84 μM TG, read-out: IC50 ± SD
[9] = A549, A549/T, +5.21 μM TG, read-out: IC50 ± SD
[10] = 0.94 μM PTX with 7.53 μM tangeretin
[11] = 0.94 μM PTX, absence of tangeretin

Structure (SMILES)	fold reversal (A549/T cells; A549/T, +2.51 μM TG)	fold reversal (A549/T cells; A549/T, +7.53 μM TG)	fold reversal (A549/T cells; A549/T, drug alone)	IC50 (A549/T cells; [6]) [µM]	IC50 (A549/T cells; [7]) [µM]	fold reversal (A2780/T cells [1]; +7.53 μM TG)	fold reversal (A2780/T cells [1]; drug alone)	IC50 (A2780/T cells [1]; 48 h, drug alone) [µM]	IC50 (A2780/T cells [1]; +7.53 μM TG) [µM]	fold reversal (A549/T cells; A549/T, +0.84 μM TG)	fold reversal (A549/T cells; A549/T, +5.21 μM TG)	fold reversal (A2780/T cells [1]; +0.84 μM TG)	fold reversal (A2780/T cells [1]; +5.21 μM TG)	IC50 (A2780/T cells [1]; +0.84 μM TG) [µM]	IC50 (A2780/T cells [1]; +5.21 μM TG) [µM]	IC50 (A549/T cells; [8]) [µM]	IC50 (A549/T cells; [9]) [µM]	further results
O=c1[nH]cc(F)c(=O)[nH]1 [5-Fluorouracil, 5-fluorouracil]	2.12	6.05	1.00	142 ± 23.1	23.8 ± 1.93	6.31	1.00	179 ± 29	28.4 ± 4.6									fold reversal (A549/T cells; A549/T, +0.83 μM TG): 1.34; IC50 (A549/T cells; A549, A549/T, +0.83 μM TG, read-out: IC50 ± SD): 106 ± 8.63 µM; IC50 (A549/T cells; A549, A549/T, +2.51 μM TG, read-out: IC50 ± SD): 67 ± 5.44 µM; fold reversal (A2780/T cells [1]; +0.83 μM TG): 1.19; fold reversal (A2780/T cells [1]; +2.51 μM TG): 2.12; IC50 (A2780/T cells [1]; +0.83 μM TG): 152 ± 36.7 µM; IC50 (A2780/T cells [1]; +2.51 μM TG): 84.3 ± 6.56 µM
COc1cccc2c1C(=O)c1c(O)c3c(c(O)c1C2=O)C[C@@](O)(C(C)=O)C[C@@H]3O[C@H]1C[C@H](N)[C@H](O)[C@H](C)O1 [Daunorubicin, daunorubicin]		6.36	1.00			8.03	1.00	7.51 ± 0.61	0.96 ± 0.23	1.41	2.25	1.34	2.25	5.66 ± 0.92	3.4 ± 0.82			IC50 (A549/T cells; A549, 48 h, read-out: IC50 ± SD, A549/T, 48 h, drug alone): 6.7 ± 0.54 µM; IC50 (A549/T cells; A549, read-out: IC50 ± SD, A549/T, +0.84 μM TG): 4.74 ± 0.38 µM; IC50 (A549/T cells; A549, read-out: IC50 ± SD, A549/T, +5.21 μM TG): 2.99 ± 0.24 µM; IC50 (A549/T cells; A549, read-out: IC50 ± SD, A549/T, +7.53 μM TG): 1.06 ± 0.08 µM
CC(=O)O[C@@]12CO[C@@H]1C[C@H](O)[C@@]1(C)C(=O)[C@H](O)C3=C(C)[C@@H](OC(=O)[C@H](O)[C@@H](NC(=O)OC(C)(C)C)c4ccccc4)C[C@@](O)([C@@H](OC(=O)c4ccccc4)[C@H]21)C3(C)C [Docetaxel, docetaxel]		12.07	1.00	12.7 ± 2.06	1.06 ± 0.08	33.66	1.00	28.4 ± 4.59	0.84 ± 0.07	1.58	3.82	1.99	7.95	14.2 ± 2.31	3.57 ± 0.58	7.8 ± 1.29	3.36 ± 0.28	
CC(=O)O[C@H]1C(=O)[C@@]2(C)[C@H]([C@H](OC(=O)c3ccccc3)[C@]3(O)C[C@H](OC(=O)[C@H](O)[C@@H](NC(=O)c4ccccc4)c4ccccc4)C(C)=C1C3(C)C)[C@]1(OC(C)=O)CO[C@@H]1C[C@@H]2O [Paclitaxel, paclitaxel]	9.52	80.05	1.00	2.53 ± 0.41	0.03 ± 0.01	18.88	1.00	2.51	0.14 ± 0.02	2.67	9.52	1.59	5.66	1.58 ± 0.04	0.45 ± 0.07	1.03 ± 0.33	0.27 ± 0.02	apoptosis induction, single treatment (A2780/T cells [2]): did not show apoptosis induction; G1 phase content (A2780 cells; 24 hours): 30.95%; G2-M content (A2780 cells; 24 hours): 52.63%; G1 phase content (A2780 cells; 48 hours): 14.13%; G2-M content (A2780 cells; 48 hours): 62.33%; G1 phase content (A2780 cells; 72 hours): 13.07%; G2-M content (A2780 cells; 72 hours): 74.20%; accumulation of p53 (p53): accumulation of p53; EC50 (A2780/T cells [3]; Homo sapiens, CalcuSyn simulation, alone or in combination, read-out: Dose PTX at Fa 0.5 (ED50)): 3.61 µM; decrease for the ED50 dose of PTX (A2780/T cells [3]; combination with tangeretin versus PTX alone): 18 fold; mean IC50 in A2780/T greater than that of A2780 (degree of resistance) (A2780/T cells [1]; A2780/T versus parental A2780): 501 fold; G1 phase cells (A2780/T cells [4]; [10]): 13.87%; G2 phase cells (A2780/T cells [4]; [10]): 72.37%; G1 phase cells (A2780/T cells [4]; [11]): 68.30%; G2 phase cells (A2780/T cells [4]; [11]): 18.87%
C=C[C@H]1C[N@@]2CC[C@H]1C[C@@H]2[C@@H](O)c1ccnc2ccc(OC)cc12 [QND, quinidine]																		intracellular accumulations of DOX and Flutax-2 (A2780/T cells [5]): higher than that of untreated A2780/T
